Reference: publication PMC11345766, “Computational Design of Pore-Forming Peptides with Potent Antimicrobial and Anticancer Activities” (Journal of Medicinal Chemistry, 2024)
Values after ≈ are worked out from the molar mass of the structure shown. Read-outs that look alike come from different tables or passages of the source.

Tests used:
[1] = Calcein dye leakage assay from LUVs; assay type: biochemical; settings: P:L 1:100; pH 7.4
Text: To verify the pore-forming mechanism of action of the designed AMPs, we performed a calcein leakage assay. […] These lipid vesicles were used as simple mimics of bacterial membranes.[58] At the lowest tested peptide-to-lipid (P:L) ratio of 1:100 (mol/mol), three mutants (LP18, LP26, and LP40) caused >90% leakage, which was higher than the leakage caused by LP1 (87%). […] At the same concentration, LP23 caused leakage equivalent to that caused by LP1. Other mutants had lower leakage activity. At a higher P:L ratio of 1:50, all the abovementioned mutants caused 100% leakage, equivalent to that caused by LP1.
Pore-forming activity was tested using a dye leakage assay measuring the leakage of self-quenching fluorescent dye calcein from POPC:POPG (1:1 mol/mol) LUVs. DiD was mixed with lipids (1:500 mol/mol), and lipid film was created by evaporating chloroform, followed by 4 h of desiccation. Dried lipid film was dissolved in calcein buffer (35 mM calcein, 25 mM NaH2PO4·H2O and Na2HPO4·7H2O (3:7 mol/mol), 20 mM NaCl, and 1 mM EDTA). After 10 freeze–thaw cycles, the sample was extruded 50 times through a 100 nm pore size polycarbonate membrane filter. Free calcein in solution was removed using a HiTrap Desalting column. The concentrations of LUVs and peptides were adjusted to 0.02 and 0.1 mM, respectively, in PBS (25 mM NaH2PO4·H2O and Na2HPO4·7H2O (3:7 mol/mol), 100 mM NaCl, and 1 mM EDTA). The investigated P/L ratio was from 1:100 to 1:10 (mol/mol). Fluorescence intensity was measured using a HORIBA Scientific Jobin Yvon FluoroLog-3 Modular Spectrofluorometer (USA). Excitation and emission wavelengths were set to 495 and 520 nm, respectively. Triton X-100 10% caused 100% leakage used for normalization.

E. coli (TOP10) = assay: Broth microdilution antimicrobial susceptibility assay; assay type: cell-based, Escherichia coli; settings: 24 h, MHB
Text: (§1) To test antimicrobial activity, all peptides were initially screened, in a broth microdilution assay, against Gram-negative Escherichia coli (TOP10) and Gram-positive Staphylococcus carnosus (CCM 4838T) Biosafety Level 1 (BSL-1) bacteria (Table 2). […] Four other mutants (LP3, LP26, LP36, and LP39) had higher activity than LP1 against E. coli, and two mutants (LP23 and LP32) had higher activity than LP1 against S. carnosus. Six mutants (LP29, LP30, LP31, LP33, LP40, and LP43) were not active against one or both bacteria, even at the highest concentration tested (50 μM).
(§2) Antimicrobial activity against E. coli TOP10 and S. carnosus CCM 4838T was tested using the broth microdilution assay. Bacteria were cultured in MHA Petri dish for 24 h, subcultured in an MHB test tube for 6 h at 37 °C, and diluted to 10^6 CFU/mL (OD600). […] Dilution series was prepared for concentrations 50 to 0.1 μM in a flat-bottom 96-well plate, inoculated with bacteria, and incubated for 24 h at 37 °C. Growth control wells were free from test compounds, and sterility control wells were free from bacteria. Bacterial MIC was determined as the lowest concentration of test compounds that inhibited visible growth of bacteria (i.e., no visible turbidity).

S. carnosus (CCM 4838T) = assay: microbe, parasite or virus in culture; assay type: cell-based, Staphylococcus carnosus; settings: read-out: Antimicrobial activity (MIC) S. carnosus (CCM 4838T)
Text: as §1, §2

[2] = tested on: murine macrophages RAW 264.7; settings: 24 h
Procedure: Cytotoxicity against human immortalized keratinocytes HaCaT, human alveolar basal epithelial A549 (derived from adenocarcinoma), and murine macrophages RAW 264.7 was tested using MTT [3-(4,5-dimethylthiazol-2-yl)-2,5-diphenyltetrazolium bromide] assay. Cells were cultured in Dulbecco’s modified Eagle’s medium (DMEM) containing 4 mM glutamine for HaCaT, or 2 mM glutamine for A549 and RAW 264.7 cells, supplemented with 10% heat-inactivated fetal bovine serum (FBS) and antibiotics (0.1 mg/mL penicillin and streptomycin). Nonessential amino acids (NEAA) and sodium pyruvate (1 mM) were added for macrophages. Cell lines were grown in 25 and 75 cm^2 flasks at 37 °C in a humidified atmosphere with 5% CO2. Cells were suspended in DMEM, containing glutamine, NEAA, and sodium pyruvate (as described above), supplemented with 2% FBS, plated in 96-well plates at 4 × 10^4 cells/well, and incubated at 37 °C in a 5% CO2 atmosphere. After overnight incubation, the medium was replaced with fresh DMEM supplemented with peptides at different concentrations: 2, 4, 8, 16, 32, 64, and 128 μM. Negative controls were cells without peptides. After 24 h of peptide treatment at 37 °C in a 5% CO2 atmosphere, medium was replaced with Hank’s buffer (136 mM NaCl, 0.34 mM Na2HPO4, 0.44 mM KH2PO4, 5.4 mM KCl, 4.1 mM NaHCO3, supplemented with 5.5 mM D-glucose) containing 0.5 mg/mL MTT. Mitochondrial dehydrogenases converted soluble yellow dye MTT to insoluble purple formazan. After 4 h of incubation, acidified isopropanol was added to dissolve formazan crystals and measured for OD570 using Tecan microplate reader Infinite M200 (Salzburg, Austria).

[3] = tested on: A. baumannii (ATCC 19606); assay: Neutropenic murine deep thigh infection model; assay type: in vivo, mouse; settings: single intraperitoneal dose at 10 times the MIC; four days after treatment
Text: Mice were euthanized 4 days postinfection (day 8).
Each experimental group comprised three mice.

[4] = tested on: cytoplasmic membranes of ESKAPEE pathogens; assay: Cytoplasmic membrane depolarization assay, DiSC3-(5); assay type: cell-based; settings: both Gram-negative and Gram-positive bacteria; peptides at their MICs
Procedure: First, we investigated the ability of the peptides to depolarize the cytoplasmic membranes of ESKAPEE pathogens. […] Bacteria were incubated with 3,3′-dipropylthiadicarbocyanine iodide [DiSC3-(5)] dye, and the dye fluorescence was measured after peptide treatment. DiSC3-(5) is sensitive to transmembrane potential changes. It accumulates in the cytoplasmic membrane with quenched fluorescence, and when the membrane potential becomes unbalanced, the dye molecules translocate to the outside environment, resulting in increased fluorescence.[56] The three potent AMPs (LP1, LP18, and LP28) and the H-variant (LP40) depolarized the cytoplasmic membrane of both Gram-negative and Gram-positive bacteria at their MICs.
The cytoplasmic membrane depolarization activity of the peptides was determined by measuring the fluorescence of membrane-potential-sensitive dye DiSC3-(5). A. baumannii ATCC 19606, E. coli ATCC 11775, K. pneumoniae ATCC 13883, P. aeruginosa PAO1, S. aureus ATCC 12600, and E. faecium ATCC 700221 were grown to mid log phase (OD600 = 0.5) at 37 °C and then centrifuged (10,000 rpm at 4 °C for 10 min). Cells were washed twice with a buffer containing 20 mM glucose and 5 mM HEPES (pH 7.2) and diluted 1:10 (OD600 = 0.05) in a buffer with 0.1 M KCl, […], and 5 mM HEPES (pH 7.2). Fluorescence was recorded at the excitation and emission wavelengths of 622 and 670 nm, respectively. Bacterial solution (100 μL) was incubated for 15 min with 20 nM of DiSC3-(5) until fluorescence reached a plateau. Changes in transmembrane potential were monitored by observing the difference in fluorescence emission intensity after adding peptides (100 μL at their MICs) for 45 min. Assay was performed in triplicate.

E. faecium (ATCC 700221) = settings: resistant to vancomycin
Text: (§3) The effect of net charge was further investigated against six reference strains of ESKAPEE pathogens (Figure 3b).

[5] = tested on: A. baumannii (ATCC 19606); settings: clinically relevant strain
Text: as §3

E. coli AIC221 = settings: Figure 3c
Text: as §3

A. baumannii (Z13) = settings: Z13, 18 h
[6] = single intraperitoneal dose at 10 times the MIC
Procedure: Neutropenic mice were infected intramuscularly (in the right thigh) with 10^6 cells per mL of Gram-negative A. baumannii (ATCC 19606).
(a) Schematic of the deep thigh infection model in which bacteria are injected intramuscularly at day 4 and peptides are administered intraperitoneally also at day 4 to assess their anti-infective activity. Mice were euthanized 4 days postinfection (day 8). Each group consisted of six mice (n = 6), and the bacterial loads used to infect the mice derived from three different inocula. […] Polymyxin B (0.006 mg/kg) and levofloxacin (0.014 mg/kg) were used as the reference antibiotics. Statistical significance was done using one-way ANOVA followed by Dunnett’s test. Violin plots represent the median, upper quartile, and lower quartile. (c) Mouse weight was monitored to exclude possible toxic effects of the peptides.
Six-week-old female CD-1 mice (obtained from Charles River; stock number 18679700-022) underwent neutropenia induction via two intraperitoneal doses of cyclophosphamide (150 mg kg^–^1) administered with a 72 h interval. One day later, the mice received an intramuscular injection containing A. baumannii ATCC 19606 (10^6 CFU mL^–1) in the right thigh. Bacteria were cultured in LB broth, washed twice with PBS (pH 7.4), and resuspended to the desired concentration. […] Polymyxin B (0.006 mg/kg) and levofloxacin (0.014 mg/kg) were used as the reference antibiotics. Prior to each injection, mice were anesthetized with isoflurane and their respiratory rate and pedal reflexes were monitored. Subsequently, we observed the infection establishment and euthanized the mice. The infected area was excised 4 days postinfection (i.e., 8 days after the beginning of the experiment), homogenized using a bead beater for 20 min (25 Hz), and 10-fold serially diluted for CFU quantification on MacConkey agar plates. Each experimental group comprised three mice. All experiments were conducted blindly, and no animals were excluded from the analysis. Statistical significance was assessed using one-way ANOVA followed by Dunnett’s test on log10-transformed data to mitigate outlier effects; p values are reported for each group, with all groups compared to the untreated control group.

ESKAPEE pathogens [7] = assay: MIC against five commercially available ESKAPEE strains (Figure 3a); assay type: cell-based
Procedure: First, LP1 and five mutants (LP3, LP8, LP18, LP22, and LP28) were tested against five commercially available ESKAPEE strains (Figure 3a). Promising activity was obtained against Gram-negative Acinetobacter baumannii (GSAB 164), which is resistant to colistin and meropenem, followed by a quality control strain of E. coli (ATCC 25922). Micromolar activity, i.e., MIC of 1 μM, was obtained with both LP1 and LP18.
(Protocol a) Antimicrobial activity test against ESKAPEE strains S. aureus NRS 1, K. pneumoniae ATCC 700603, A. baumannii GSAB 164, P. aeruginosa NCTC 13437, and E. coli ATCC 25922 was purchased from Evotec (UK).

ESKAPEE pathogens [8] = assay: MIC against six reference strains of ESKAPEE pathogens (Figure 3b); assay type: cell-based
Text: as §3

ESKAPEE pathogens [9] = assay: MIC against nine ampicillin-resistant ESKAPEE strains (Figure 3d); assay type: cell-based; settings: 72 h

Molecule	Calcein leakage (%) from LUVs at P:L 1:100 (mol/mol) [1] [%]	MIC (E. coli (TOP10)) [µM]	MIC (S. carnosus (CCM 4838T); CCM 4838, 24 h) [µM]	IC50 [2] [µM]	Reduction of bacterial load [3]	Depolarization of the cytoplasmic membrane [4]	MIC (E. faecium (ATCC 700221)) [µM]	MIC [5] [µM]	MIC (E. coli AIC221) [µM]	MIC (A. baumannii (Z13)) [µM]	Change in mouse weight [6]	MIC (E. coli (TOP10); Escherichia coli) [µM]	MIC (S. carnosus (CCM 4838T); Staphylococcus carnosus, 24 h, MHB) [µM]	MIC (ESKAPEE pathogens [7]) [µM]	MIC (ESKAPEE pathogens [8]) [µM]	MIC (ESKAPEE pathogens [9]) [µM]
H-KKKKKLKKILKKLFQFINQLDNQLQDIKKKKK-OH [LP28]	74.0 ± 6.7	0.4	0.4	31	did not significantly reduce the bacterial load	depolarized	0.8	0.8	0.8	1	no significant change in mouse weight					
CC1(C)S[C@@H]2[C@H](NC(=O)[C@H](N)c3ccccc3)C(=O)N2[C@H]1C(=O)O [Ampicillin]												12.5 (≈ 4.37 µg/mL)	0.1 (≈ 0.0349 µg/mL)	> 180	> 92	> 360
